# Target: T1, lipase enzyme (Thermomyces lanuginosus, UniProt O59952, N255R/T253R)
# T1 construct: purchased Novozymes LIPEX 100 L
# Assay: Total hydrolysis of rapeseed oil in a wash process: effect of surfactants on lipase enzyme activity (free oleic acid by HPLC)
# Assay type: biochemical
# Conditions: about 100 ppm by weight surfactant; about 0.2 g/litre lipase concentrate; pH about 9.6; about 50° C.; 2° fH; compared with blank and LES (Sample C)
# Description: (§1) The total hydrolysis of rapeseed oil in a wash process was tested with washing liquors that were always comprising the same concentration of a lipase enzyme concentrate. A blank test was performed without any added surfactant. This blank test served as the reference with which could be compared the other results obtained with the same washing liquor samples into which one of a number of different non-ionic surfactants were added.
# In the experiments, the lipase concentrate was always present in a concentration of about 0.2 gram of the concentrate per litre of total liquor.
# The washing tests were performed at a temperature of about 50° C. The water in the formulations was demineralised water obtained by reverse osmosis (RO).
# Different washing liquors were prepared containing about 100 ppm by weight of a selected surfactant, to be compared with a blank liquor containing only the lipase enzyme concentrate and no surfactants.
# (§2) For each liquor was tested the appearance of free oleic acid generated from the hydrolysis of a standard amount of rapeseed oil with which the liquor was brought in contact. Monitored by High Performance Liquid Chromatography (HPLC) was the quantitative release of free oleic acid (C18:1 fatty acid) in the washing liquor and/or present on the textile, as explained in the protocols that are described in detail in our copending patent application having the attorney docket reference PAT2549761 EP00 and filed on the same day as this application. Because oleic acid is the main fatty acid in the triglycerides of rapeseed oil, the generation of this acid as free fatty acid it is an excellent quantitative marker for the hydrolysis of rapeseed oil, in this context thus also for the activity of the lipase enzyme.
# A series of tests were performed using washing liquors having a hardness of 2° fH. […] For each surfactant choice 2 duplicate samples were tested, except for Sample J (3 duplicates) and Sample K (only 1 sample tested). […] Also shown for each bar with a surfactant is an error bar showing the difference between the lowest and the highest of the duplicates.
# T1 sequence (O59952 23-291 T253R/N255R): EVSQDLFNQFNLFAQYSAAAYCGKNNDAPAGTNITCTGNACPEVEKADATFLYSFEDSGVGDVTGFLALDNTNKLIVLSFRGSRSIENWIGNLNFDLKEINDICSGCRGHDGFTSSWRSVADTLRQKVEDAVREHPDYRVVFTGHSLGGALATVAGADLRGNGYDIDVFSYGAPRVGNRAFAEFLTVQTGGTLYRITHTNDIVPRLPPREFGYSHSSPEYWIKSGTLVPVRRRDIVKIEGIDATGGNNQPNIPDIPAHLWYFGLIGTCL
row,Substance,effect of the surfactant on lipase activity in the washing liquor (in words)
1,5EO-C13-C15 [M],relatively benign
2,5EO-isoC13,not better than the conventional LES surfactant
3,7EO-C13-15 [N],much larger depressing effect
4,7EO-isoC13 [F],not better than the conventional LES surfactant
5,9EO-isoC13 [G],not better than the conventional LES surfactant
6,10EO-isoC13 [H],not better than the conventional LES surfactant
7,C8-C10 APG-DP of 1.7 [Sample K],much lower depressing effect
8,C8-C10 alkyl polyglucoside (APG) with an average degree of polymerisation (DP) of 1.5,much lower depressing effect
9,C8-C16 APG-DP of 1.5 [Sample J],much lower depressing effect
10,C9-C11 fatty alcohol alkoxylated with an average ethoxylation degree of about 6 and an average propoxylation degree of about 4 [Sample O],worse than the LES reference
11,C12-C14 amine oxide [P],significant boost
12,a mixture of linear C13-C15 alcohol that has been ethoxylated to an average degree of about 3,relatively benign
13,isotridecyl alcohol ethoxylated to an average degree of ethoxylation of about 3,not better than the conventional LES surfactant

# Same assay, conditions: about 100 ppm by weight surfactant; about 0.2 g/litre lipase concentrate; pH about 9.6; about 50° C.; hardness 2° fH
row,Substance,"lipase activity relative to the blank liquor (A), set at 100%"
1,Lauryl ether sulphate [Sample C],about 40%
2,Linear Alkyl Benzene Sulphonate [Sample B],12%

# Target: T1, lipase enzyme
# Assay: Effect of surfactant concentration on lipase activity in the washing liquor
# Assay type: biochemical
# Conditions: not given
# Description: as §1, §2
# Extra experiments were performed with 5EO-isoC13 surfactant.
Substance,surfactant concentration at which the suppressing activity on lipase becomes noticeable,surfactant concentration until which the suppressing effect further grows
5EO-isoC13,10 ppm by weight,about 100 ppm by weight

# Same assay, conditions: from about 100 up to 250 ppm by weight surfactant
row,Substance,suppressing effect when further increasing the surfactant presence
1,5EO-isoC13,remains about the same

# From US20240316513A1, “METHOD AND APPARATUS FOR ON-SITE PREPARATION AND DOSING OF AN ENZYME-CONTAINING DETERGENT FORMULATION” (CHRISTEYNS, priority 2021, published 2024)
